According to US20100267720A1, “Crystalline Forms of 2-Hydroxy-3- [5- (Morpholin- 4- Ylmethyl) Pyridin-2-YL] IH- Indole- 5 -Carbonitrile Citrate” (ASTRAZENECA AB, priority 2007, published 2010):

Assays:
[1] = Hygroscopicity by Dynamic Vapour Sorption Analysis (DVS); format: physicochemical; conditions: for moisture uptake: 25° C.
Procedure: The studies were undertaken using Dynamic Vapour Sorption Apparatus (DVS, Surface Measurement Systems, London UK). The apparatus consists of Cahn micobalance housed inside a temperature-controlled cabinet. All experiments were performed at 25° C. The DVS was used to characterize the moisture uptake (w/w %) at different relative humidities (RH). Samples (5-10 mg) were weighed directly into the DSV sample cup and exposed to different relative humidities.

[2] = Chemical stability of the salt forms; format: physicochemical; conditions: compared with the hydrochloride salt of WO 03/082853
Excerpt: The term “chemical stability” means that the compound can be stored in an isolated form, or in the form of a formulation in which it is provided in admixture with pharmaceutically acceptable carriers, diluents or adjuvants (e.g., in an oral dosage form, such as tablet, capsule, etc.), under normal storage conditions, with little or no chemical degradation or decomposition.

[3] = 40% relative humidity (RH), citrate
[4] = 60% relative humidity (RH), citrate
[5] = 80% relative humidity (RH), citrate

Compound: N#Cc1ccc2[nH]c(O)c(-c3ccc(CN4CCOCC4)cn3)c2c1.O=C(O)CC(O)(CC(=O)O)C(=O)O [Citrate Form E, 2-Hydroxy-3-[5-(morpholin-4-ylmethyl)pyridin-2-yl]1H-indole-5-carbonitrile citrate]
- moisture uptake [1, 3]: 0.45 w/w %
- moisture uptake [1, 4]: 0.52 w/w %
- moisture uptake [1, 5]: 0.60 w/w %
- hygroscopicity (in words) ([1]; citrate): very low hygroscopicity

Compound: N#Cc1ccc2[nH]c(O)c(-c3ccc(CN4CCOCC4)cn3)c2c1.O=C(O)CC(O)(CC(=O)O)C(=O)O [2-hydroxy-3-[5-(morpholin-4-ylmethyl)pyridin-2-yl]1H-indole-5-carbonitrile citrate]
- chemical stability (in words) [2]: improved chemical stability over the hydrochloride salt
- hygroscopicity (in words) ([1]; listed as citrate salt of 2-hydroxy-3-[5-(morpholin-4-ylmethyl)pyridin-2-yl]1H-indole-5-ca): lower hygroscopicity than the hydrochloride salt

Compound: N#Cc1ccc2[nH]c(O)c(-c3ccc(CN4CCOCC4)cn3)c2c1.O=C(O)CC(O)(CC(=O)O)C(=O)O [Citrate Form D, 2-Hydroxy-3-[5-(morpholin-4-ylmethyl)pyridin-2-yl]1H-indole-5-carbonitrile citrate]
- moisture uptake [1, 3]: 3.2 w/w %
- moisture uptake [1, 4]: 3.6 w/w %
- moisture uptake [1, 5]: 3.7 w/w %
